Measured values as given in BindingDB's records for doi:10.1021/jm1005989 (Pfizer, 2010).

Target: Beta-2 adrenergic receptor (Homo sapiens, UniProt P07550)
Test: Agonist activity at human recombinant beta2 adrenergic receptor expressed in CHO cells assessed as elevation in cAMP level after 1 hr by flashplate method

Beta-2 adrenergic receptor, sequence (P07550 whole entry): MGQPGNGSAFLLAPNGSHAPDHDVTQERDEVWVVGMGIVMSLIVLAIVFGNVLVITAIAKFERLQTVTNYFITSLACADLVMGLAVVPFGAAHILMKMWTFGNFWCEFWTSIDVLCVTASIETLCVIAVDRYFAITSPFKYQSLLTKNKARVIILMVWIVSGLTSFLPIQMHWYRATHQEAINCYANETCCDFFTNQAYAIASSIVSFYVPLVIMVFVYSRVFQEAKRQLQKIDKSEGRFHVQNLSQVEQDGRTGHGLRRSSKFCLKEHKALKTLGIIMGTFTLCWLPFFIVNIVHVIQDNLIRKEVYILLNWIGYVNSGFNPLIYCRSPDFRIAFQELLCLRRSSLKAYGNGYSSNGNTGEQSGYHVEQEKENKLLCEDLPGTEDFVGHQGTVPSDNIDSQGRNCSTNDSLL

EC50: 0.07 nM
Compound: CC(C)(Cc1cccc(CC(=O)NCc2ccc(Cl)c(Cl)c2)c1)NC[C@H](O)c1ccc(O)c(NS(C)(=O)=O)c1 [(R)-N-(3,4-dichlorobenzyl)-2-(3-(2-(2-hydroxy-2-(4-hydroxy-3-(methylsulfonamido)phenyl)ethylamino)-2-methylpropyl)phenyl)acetamide]
